Data: EP4748841A1, “BICYCLO[5,6] IMIDAZOLE PYRIMIDONE DERIVATIVE AND PREPARATION METHOD THEREFOR AND USE THEREOF” (Shujing Biopharma Co., Ltd, priority 2023, dated 2025)

Experiments:
Assay type in all cases: in vitro ADME
[1] = Liver microsome stability experiment (human); settings: for CLint scaled at 1 µM: human, liver microsomes, pH 7.4, Human liver microsomes; for half-life at 1 µM: pH 7.4, Human liver microsomes
Method: (§1) This experiment aimed to evaluate the phase I metabolic stability of the compounds of the present disclosure in liver microsomes of SD rats, beagle dogs, cynomolgus monkeys, and humans.
(§2) • (1) Buffer preparation: 73.21 g of dipotassium hydrogen phosphate trihydrate and 10.78 g of potassium dihydrogen phosphate were dissolved in 4000 mL of ultrapure water. The pH of the solution was adjusted to within 7.40 ± 0.10 using 10% phosphoric acid or 1 M potassium hydroxide, resulting in a final concentration of 100 mM. • (2) Solution preparation and dilution: Stock solutions of the test compounds at a concentration of 10 mM were prepared in dimethyl sulfoxide (DMSO) and stored at 4 °C, and they were diluted into 100 µM working solutions with pure acetonitrile when used. A stock solution of the control compound testosterone at a concentration of 10 mM was prepared in DMSO and stored at -20 °C, and it was diluted into a 400 µM working solution with pure acetonitrile when used. • (3) Termination solution preparation: The termination solution was an acetonitrile solution containing an internal standard (terfenadine). The prepared termination solution was stored in a refrigerator at 2-8 °C. • (4) Liver microsome solution preparation: Liver microsomes from various species (SD rat, beagle dog, cynomolgus monkey, and human) were diluted into 20× working solutions using 100 mM potassium phosphate buffer. The final concentration of the liver microsomes in the reaction system was 0.5 mg/mL. • (5) Reduced nicotinamide adenine dinucleotide phosphate (NADPH) regeneration system preparation: Appropriate amounts of nicotinamide adenine dinucleotide phosphate (NADP), glucose-6-phosphate (G6P), magnesium chloride (MgCl2), and glucose-6-phosphate dehydrogenase (G6PDH) were weighed to prepare stock solutions at concentrations of 65.33 mM, 330 mM, 300 mM, and 250 Units/mL, respectively. The four stock solutions described above were each added to an appropriate amount of buffer, and the mixture was mixed well by gently inverting up and down. The final concentrations of NADP, G6P, MgCl2, and G6PDH in the NADPH regeneration system were 2.65 mM, 10.2 mM, 6.12 mM, and 2.45 Units/mL, respectively. • (6) Incubation process: The incubation was completed in 96-well plates. Several incubation plates were prepared and named T0, T5, T10, T20, T40, T60, and NCF60, respectively. The first 6 plates corresponded to reaction time points of 0 min, 5 min, 10 min, 20 min, 40 min, and 60 min, respectively. The NCF60 plate was incubated for 60 min with potassium phosphate buffer replacing the NADPH regeneration system solution. Samples under all conditions were prepared in triplicate.
(§3) 2 µL of the test compound or control compound and 100 µL of microsome working solution (containing 1 mg/mL liver microsome protein) were added to each of the T0, T5, T10, T20, T40, T60, and NCF60 plates, and only the microsome working solution was added to the Blank 60 plate. The plates described above were then pre-incubated in a 37 °C water bath for about 10 min.
(§4) After the pre-incubation was completed, 98 µL of the NADPH regeneration system working solution was added to each sample well except for the NCF60 plate and the T0 plate to initiate the reaction, and 98 µL of potassium phosphate buffer was added to each well of the NCF60 plate. Therefore, for the sample wells containing the test sample or control substance working solution, the final concentrations of TC and testosterone in the reaction were 1 µM and 4 µM, respectively, the concentration of liver microsomes was 0.5 mg/mL, and the final concentrations of DMSO and acetonitrile in the reaction system were 0.01% (v/v) and 0.99% (v/v), respectively.
(§5) After incubation for an appropriate time (e.g., 5 min, 10 min, 20 min, 40 min, and 60 min), 600 µL of a termination solution (an acetonitrile solution containing 100 ng/mL […]) was added to each test compound sample well and control compound sample well to terminate the reaction. […]

[2] = Liver microsome stability experiment (beagle dog); settings: for CLint scaled at 1 µM: beagle, dog, liver microsomes, pH 7.4, Beagle dog liver microsomes; for half-life at 1 µM: pH 7.4, Beagle dog liver microsomes
Method: as §1, §2, §3, §4, §5

[3] = Liver microsome stability experiment (SD rat); settings: for CLint scaled at 1 µM: SD, rat, liver microsomes, pH 7.4, SD rat liver microsomes; for half-life at 1 µM: pH 7.4, SD rat liver microsomes
Method: as §1, §2, §3, §4, §5

[4] = 0.5 mg/mL, 1 µM, read-out: CL(liver)
[5] = 0.5 mg/mL, 1 µM, read-out: CLint(liver)
[6] = read-out: Clearance rate classification

CLint scaled at 1 µM [1, 4] [L/h/kg] | CLint scaled at 1 µM [1, 5] [L/h/kg] | CLint scaled at 1 µM [1, 6] [L/h/kg] | half-life at 1 µM ([1]; 0.5 mg/mL, 1 µM) [h] | CLint scaled at 1 µM [2, 4] [L/h/kg] | CLint scaled at 1 µM [2, 5] [L/h/kg] | CLint scaled at 1 µM [2, 6] [L/h/kg] | half-life at 1 µM ([2]; 0.5 mg/mL, 1 µM) [h] | CLint scaled at 1 µM [3, 4] [L/h/kg] | CLint scaled at 1 µM [3, 5] [L/h/kg] | CLint scaled at 1 µM [3, 6] [L/h/kg] | half-life at 1 µM ([3]; 0.5 mg/mL, 1 µM) [h] | Structure (SMILES)
0.414 | 0.618 | 0.534 to 2.9 | 2.01 | 0.63 | 0.948 | 0.792 to 4.33 | 2.1 | 1.13 | 1.72 | 1.42 to 7.73 | 1.45 | O=c1nc(OCc2cc(F)c(Oc3ccnc(C(F)(F)F)c3)c(F)c2)cc2n1C[C@H]1CCCN21 [Comparative Example 1, reference compound]
< 0.304 | < 0.401 | ≤ 0.534 | > 3.11 | < 0.48 | < 0.642 | ≤ 0.792 | > 3.11 | < 0.648 | < 0.804 | ≤ 1.42 | > 3.11 | O=c1nc(OCc2cc(F)c(Oc3ccnc(C(F)(F)F)c3)c(F)c2)cc2n1C[C@H]1CCN21 [Example 34-R]
